Test results from US20250186545A1, “RECOMBINANT PROTEIN FOR ULCERATIVE COLITIS TREATMENT OR PREVENTION AND COMPOSITION FOR ULCERATIVE COLITIS TREATMENT OR PREVENTION CONTAINING THE SAME” (NEXEL CO., LTD., priority 2021, published 2025).

Legend:
Assay type in all cases: in vivo, C57BL/6 mice
[1] = system: DSS-induced colitis model; assay: Body weight change, study of FIG. 10 (FIG. 12, Tables 4 and 5); conditions: for Change of original weight: AD group
Excerpt: (§1) First, in the case of an animal model for mice in which ulcerative colitis is induced using DSS (Dextran sulfate sodium), bloody stool, weight loss, large intestinal shrinkage, and mucosal ulcers occur, and histologically, damage occurs in large intestinal epithelial cells, so that the intestinal glands of an epithelial layer fall off without inflammation. Further, the amount of f various immune substances in the mucosa increases to cause intestinal inflammation. For this reason, DSS has been widely used to create experimental animal models.
(§2) Specifically, in a DSS-induced colitis model in which 9-week-old female C57BL/6 mice were allowed to freely ingest 2% DSS, an experiment was conducted assuming that one C57BL/6 mouse ingested 5 ml of water containing 2% DSS per day.
(§3) For 7 days, only water containing 2% DSS without any treatment was provided to the mice, and for 5 days after the 7th day, water without 2% DSS was provided, and simultaneously, various comparative substances, including NP-011 protein, were fed at various concentrations by injection into the caudal vein, thereby creating an animal model of inducing ulcerative colitis.
Lastly, as shown in FIG. 6 and FIG. 10, a third experimental group ‘NP-011’ that is an experimental group was supplied with only water containing 2% DSS from day 0 to day 7, was supplied with plain water from day 7 to day 14, […] for 5 days starting from day 7, a total of 5 times.
In addition, increase or decrease in body weight was analyzed on the basis of the original body weight, and the level of weight increase or decrease compared with the positive control group was also analyzed.

[2] = system: DSS-induced colitis model; assay: Histopathology (H&E) of large intestinal mucosa: erosion and epithelial hyperplasia; study of FIG. 10
Excerpt: as §1, §2, §3
(§4) Lastly, as shown in FIG. 6 and FIG. 10, a third experimental group ‘NP-011’ that is an experimental group was supplied with only water containing 2% DSS from day 0 to day 7, was supplied with plain water from day 7 to day 14, and NP-011 recombinant protein of 320 μg/kg was administered once a day for 5 days starting from day 7, a total of 5 times.
Form the results in FIG. 7 and Table 1, it can be confirmed that the degrees of crypt damage, inflammation severity, and inflammation extent in the mucosa were reduced in the order of MFG-E8 160 μg/kg, NP-011 80 μg/kg, and NP-011 320 μg/kg compared with the positive control group after induction of ulcerative colitis, so that the overall degree of damage to the large intestinal mucosa was lowered.
Then, the tissue fixed with 4% paraformaldehyde was subjected to staining (Hematoxylin & Eosin stain) and histopathological examination by KP&T Co., Ltd. The pathological interpretation was made with reference to INHAND. The degrees of erosion and epithelial hyperplasia in the mucosa of the large intestinal tissue were measured for comparison of lesions in the respective animal model groups, and results thereof are shown in FIG. 11 and Table 2. (Reference-J Toxicol Pathol 2016; 29 (1 Suppl)): 1S-124S)

[3] = system: DSS-induced colitis model; assay: Body weight change, study of FIG. 6 (FIG. 8, Table 3); conditions: MFG-E8 160 μg/kg
Excerpt: as §1, §2, §3, §4
First, using the animal models corresponding to the ‘NTC’ control group, the ‘UC CONTROL’ control group, the ‘MFG-E8’ experimental group, the ‘NP-011’ second experimental group, and the ‘NP-011’ third experimental group, body weight was measured daily for each animal model group before drug administration to reduce errors due to the administration.
In addition, increase or decrease in body weight was analyzed compared with the positive control group, and comprehensive results thereof are shown in FIG. 8 and Table 3.

[4] = system: DSS-induced colitis model; assay: Colon length, study of FIG. 6 (FIG. 9); conditions: MFG-E8 160 μg/kg; 3 days after the last administration
Excerpt: as §1, with “models. […]” for “models.”
First, using the animal models corresponding to the \NTC′ control group, the ‘UC CONTROL’ control group, the ‘MFG-E8’ experimental group, the ‘NP-011’ second experimental group, and the ‘NP-011’ third experimental group, the large intestine was extracted separately for each animal model group, the colon length was analyzed, and the results thereof are shown in FIG. 9.
Specifically, to analyze the colon length, each animal model was euthanized by gradual increase in carbon dioxide 3 days after the last administration, and the large intestine was extracted. The extracted large intestine was photographed with a length measuring device (30 cm ruler), and the obtained photograph was quantified using image J.

[5] = system: DSS-induced colitis model; assay: Histopathology (H&E) of large intestinal mucosa: crypt damage, inflammation severity, inflammation extent; study of FIG. 6
Excerpt: First, in the case of an animal model for mice in which ulcerative colitis is induced using DSS (Dextran sulfate sodium), bloody stool, weight loss, large intestinal shrinkage, and mucosal ulcers occur, and histologically, damage occurs in large intestinal epithelial cells, so that the intestinal glands of an epithelial layer fall off without inflammation. Further, the amount of f various immune substances in the mucosa increases to cause intestinal inflammation. For this reason, DSS has been widely used to create experimental animal models. Specifically, in a DSS-induced colitis model in which 9-week-old female C57BL/6 mice were allowed to freely ingest 2% DSS, an experiment was conducted assuming that one C57BL/6 mouse ingested 5 ml of water containing 2% DSS per day. For 7 days, only water containing 2% DSS without any treatment was provided to the mice, and for 5 days after the 7th day, water without 2% DSS was provided, and simultaneously, various comparative substances, including NP-011 protein, were fed at various concentrations by injection into the caudal vein, thereby creating an animal model of inducing ulcerative colitis. […] Lastly, as shown in FIG. 6 and FIG. 10, a third experimental group 'NP-011' that is an experimental group was supplied with only water containing 2% DSS from day 0 to day 7, was supplied with plain water from day 7 to day 14, and NP-011 recombinant protein of 320 μg/kg was administered once a day for 5 days starting from day 7, a total of 5 times. First, using the animal models corresponding to the 'NTC' control group, the 'UC CONTROL' control group, the 'MFG-E8' experimental group, the 'NP-011' second experimental group, and the 'NP-011' third experimental group, for each animal model group, the cecum was removed from a large intestinal tissue, and 1 to 2 cm of the proximal and 1 cm of the anus were secured and fixed with 4% paraformaldehyde. Then, the tissue fixed with 4% paraformaldehyde was subjected to staining (Hematoxylin & Eosin stain) and histopathological examination by KP&T Co., Ltd. The pathological interpretation was made with reference to […] (International Harmonization of Nomenclature and Diagnostic Criteria for Lesions) which is an international standard toxicology glossary. The degrees of crypt damage, inflammation severity, and inflammation extent in the mucosa of the large intestinal tissue were measured for comparison in the respective animal model groups, and results thereof are shown in FIG. 7 and Table 1. (Reference-J Toxicol Pathol 2016; 29 (1 Suppl): 1S-[…])

[6] = MGF-E8 160 μg/kg, once a day x5 from day 7

## Adalimumab
[1]; 10 days
  Dunnett's multiple comparisons test UC VS AD, Summary (body weight): ** (** P<0.01)
[1]; Adalimumab group, Cyclosporine A group, NP-011 groups (20 to 80 μg/kg)
  weight loss: weight loss was observed
[1]; Day 1
  Change of original weight: 0.161 g
[1]; Day 2
  Change of original weight: 0.237 g
[1]; Day 3
  Change of original weight: 0.438 g
[1]; Day 4
  Change of original weight: 0.411 g
[1]; Day 5
  Change of original weight: -0.217 g
[1]; Day 6
  Change of original weight: -0.846 g
[1]; Day 7
  Change of original weight: -1.464 g
[1]; Day 8
  Change of original weight: -1.702 g
[1]; Day 9
  Change of original weight: -1.683 g
[1]; Day 10
  Change of original weight: -1.444 g
[1]; Day 11
  Dunnett's multiple comparisons test UC VS AD, Summary (body weight): **** (**** P<0.0001)
  Change of original weight: -0.471 g
[1]; Day 12
  Dunnett's multiple comparisons test UC VS AD, Summary (body weight): **** (**** P<0.0001)
  Change of original weight: -0.035 g
[1]; Day 13
  Dunnett's multiple comparisons test UC VS AD, Summary (body weight): **** (**** P<0.0001)
  Change of original weight: -0.467 g
[2]; AD 4 mg/kg
  Epithelial hyperplasia score: 4.2
  Erosion, mucosa: 0.8
[2]; AD 4 mg/kg, erosion + hyperplasia
  Group total average: 5.0
[2]; Adalimumab group
  degrees of erosion and epidermal hyperplasia in the mucosa of large intestinal tissues: reduced

B1: milk fat globule-EGF factor 8 (protein, UniProt Q08431 24-387, looked up)
Lactadherin: LDICSKNPCHNGGLCEEISQEVRGDVFPSYTCTCLKGYAGNHCETKCVEPLGLENGNIANSQIAASSVRVTFLGLQHWVPELARLNRAGMVNAWTPSSNDDNPWIQVNLLRRMWVTGVVTQGASRLASHEYLKAFKVAYSLNGHEFDFIHDVNKKHKEFVGNWNKNAVHVNLFETPVEAQYVRLYPTSCHTACTLRFELLGCELNGCANPLGLKNNSIPDKQITASSSYKTWGLHLFSWNPSYARLDKQGNFNAWVAGSYGNDQWLQVDLGSSKEVTGIITQGARNFGSVQFVASYKVAYSNDSANWTEYQDPRTGSSKIFPGNWDNHSHKKNLFETPILARYVRILPVAWHNRIALRLELLGC
notes: milk fat globule-EGF factor 8 (MFG-E8) protein, comparator
[3]; Day 7
  Dunnett's multiple comparisons test UC VS MFG-E8, Summary (body weight): ns
[3]; Day 8
  Dunnett's multiple comparisons test UC VS MFG-E8, Summary (body weight): ns
[3]; Day 9
  Dunnett's multiple comparisons test UC VS MFG-E8, Summary (body weight): ns
[3]; Day 10
  Dunnett's multiple comparisons test UC VS MFG-E8, Summary (body weight): ns
[3]; Day 11
  Dunnett's multiple comparisons test UC VS MFG-E8, Summary (body weight): ns
[4]
  colon length shrinkage suppression effect compared with the non-administration control group: statistically significant increase in the colon length shrinkage suppression effect
[5]; MFG-E8 160 μg/kg
  degrees of crypt damage, inflammation severity, and inflammation extent in the mucosa compared with the positive control group: reduced
[5]; [6]
  Crypt Damage: 2.9
  Inflammation Extent: 1.2
[5]; MGF-E8 160 μg/kg, once a day x5 from day 7, caudal vein
  Inflammation Severity: 1.1
[5]; MGF-E8 160 μg/kg, sum of severity, extent, crypt damage
  Group total average: 5.2
